Like-named read-outs stand apart in the source and are kept apart here.
Key:
Format in all cases: in vivo
[1] = test system: Verconica persica (VERPE); test: Post-emergence herbicidal action against VERPE
Outline: (§1)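 Doses of 320 g/ha or lower, suffixes a, b and c marking different dosages, were applied post-emergence at the one-leaf stage in 600 l/ha water with 0.5% additive. Damage was assessed visually after about 3 weeks in the greenhouse.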

[2] = test system: Polygonum convolvulus (POLCO); test: Pre-emergence herbicidal action against POLCO
Outline: (§2)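 Application rates ran to 320 g/ha or lower, with several dosages tested on the same weeds. The compound, as wettable powder or emulsion concentrate, is sprayed pre-emergence onto soil over sown seeds; greenhouse growth follows, and effect is rated visually after roughly 3 weeks.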

[3] = test system: Verconica persica (VERPE); test: Pre-emergence herbicidal action against VERPE; conditions: dosage 320 g/ha
Outline: as §2

[4] = test system: Amaranthus retroflexus (AMARE); test: Pre-emergence herbicidal action against AMARE; conditions: visual scoring after about 3 weeks vs untreated controls
Outline: as §2

[5] = test system: Amaranthus retroflexus (AMARE); test: Post-emergence herbicidal action against AMARE
Outline: as §1

Zea mays (ZEAMX) [6] = conditions: pre-emergence, 80 g/ha, crop plant compatibility, in comparison to untreated controls
Description: Seeds of monocotyledonous and dicotyledonous weed plants and crop plants are placed in plastic or organic planting pots and covered with soil. The compounds of the invention, formulated in the form of wettable powders (WP) or as emulsion concentrates (EC), are then applied to the surface of the covering soil as aqueous suspension or emulsion with addition of 0.5% additive at a water application rate equivalent to 600 l/ha. After the treatment, the pots are placed in a greenhouse and kept under good growth conditions for the trial plants. After about 3 weeks, the effect of the preparations is scored visually in comparison with untreated controls as percentages. For example, 100% activity=the plants have died, 0% activity=like control plants.
The observed effects on selected crop plants are reported here in comparison to the untreated controls (values in %). The appendices “a” “b” and “c” give differentiation by dosage used with otherwise the same crop plants tested.

[7] = test system: Echinochloa crus-galli (ECHCG); test: Pre-emergence herbicidal action against ECHCG
Outline: as §2

Avena fatua (AVEFA) [8] = test: Pre-emergence herbicidal action against AVEFA; conditions: 320 g/ha, visual scoring after about 3 weeks vs untreated controls
Outline: as §2

[9] = test system: Matricaria inodora (MATIN); test: Post-emergence herbicidal action against MATIN
Outline: as §1

Viola tricolor (VIOTR) [10] = test: Pre-emergence herbicidal action against VIOTR
Outline: as §2

[11] = test system: Alopecurus myosuroides (ALOMY); test: Pre-emergence herbicidal action against ALOMY; conditions: scored visually after about 3 weeks, 100% = plants have died
Outline: as §2

[12] = test system: Matricaria inodora (MATIN); test: Pre-emergence herbicidal action against MATIN
Outline: as §2

[13] = test system: Pharbitis purpurea (PHBPU); test: Pre-emergence herbicidal action against PHBPU; conditions: dosage 320 g/ha
Outline: as §2

Setaria viridis (SETVI) [14] = test: Pre-emergence herbicidal action against SETVI
Outline: as §2

Zea mays (ZEAMX) [15] = conditions: for Post-emergence action against ZEAMX in %: crop plant compatibility, effect vs untreated controls
Outline: (§3)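 Foliar application at the one-leaf stage: WP/EC formulation, 0.5% additive, 600 l/ha water. Greenhouse-grown in sandy loam. Endpoint is visual % injury relative to untreated controls at about 3 weeks.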

Oryza sativa (ORYSA) = conditions: crop plant compatibility
Outline: as §3

[16] = test system: Alopecurus myosuroides (ALOMY); test: Post-emergence herbicidal action against ALOMY; conditions: visual rating about 3 weeks after treatment vs untreated controls (100% = plants have died, 0% = like control plants)
Outline: as §1

Lolium rigidum (LOLRI) [17] = test: Pre-emergence herbicidal action against LOLRI; conditions: dosage 320 g/ha
Outline: as §2

[18] = test system: Pharbitis purpurea (PHBPU); test: Post-emergence herbicidal action against PHBPU; conditions: dosage 320 g/ha
Outline: as §1

[19] = test system: Echinochloa crus-galli (ECHCG); test: Post-emergence herbicidal action against ECHCG
Outline: as §1

Viola tricolor (VIOTR) [20] = test: Post-emergence herbicidal action against VIOTR
Outline: as §1

[21] = test system: Abutilon theophrasti (ABUTH); test: Post-emergence herbicidal action against ABUTH; conditions: visual rating about 3 weeks after treatment vs untreated controls (100% = plants have died, 0% = like control plants)
Outline: as §1

Avena fatua (AVEFA) [22] = test: Post-emergence herbicidal action against AVEFA; conditions: 320 g/ha, visual rating about 3 weeks after treatment
Outline: as §1

[23] = test system: Polygonum convolvulus (POLCO); test: Post-emergence herbicidal action against POLCO; conditions: dosage 320 g/ha
Outline: as §1

Lolium rigidum (LOLRI) [24] = test: Post-emergence herbicidal action against LOLRI; conditions: dosage 320 g/ha
Outline: as §1

Setaria viridis (SETVI) [25] = test: Post-emergence herbicidal action against SETVI; conditions: dosage 320 g/ha
Outline: as §1

[26] = 80 g/ha, visual rating about 3 weeks after treatment vs untreated controls (100% = plants have died, 0% = like control plants)
[27] = 80 g/ha, effect in comparison to untreated controls

SMILES | Post-emergence action against VERPE in % ([1]; dosage 80 g/ha) | Pre-emergence action against POLCO in % ([2]; dosage 320 g/ha) | Pre-emergence action against VERPE in % [3] | Pre-emergence action against AMARE in % ([4]; 80 g/ha) | Pre-emergence action against AMARE in % ([4]; 320 g/ha) | Post-emergence action against AMARE in % [5, 26] | Pre-emergence action against ZEAMX in % (Zea mays (ZEAMX) [6]) | Pre-emergence action against ECHCG in % ([7]; dosage 320 g/ha) | Pre-emergence action against AVEFA in % (Avena fatua (AVEFA) [8]) | Pre-emergence action against VIOTR in % (Viola tricolor (VIOTR) [10]; 320 g/ha, Viola tricolor) | Pre-emergence action against ALOMY ([11]; 80 g/ha) | Pre-emergence action against ALOMY ([11]; 320 g/ha) | Pre-emergence action against MATIN in % ([12]; dosage 320 g/ha) | Pre-emergence action against PHBPU in % [13] | Pre-emergence action against SETVI in % (Setaria viridis (SETVI) [14]; dosage 320 g/ha) | Post-emergence action against ORYSA in % (Oryza sativa (ORYSA); [27]) | Pre-emergence action against LOLRI in % (Lolium rigidum (LOLRI) [17]) | Post-emergence action against PHBPU in % [18] | Post-emergence action against VERPE in % ([1]; 320 g/ha, VERPE) | Post-emergence action against ECHCG in % ([19]; dosage 80 g/ha) | also measured
O=C(COc1nn(-c2ccccn2)c(-c2ccc(F)nc2)c1Br)OCC1CCCO1 (centres unmarked) [Example I-93] | 80% | 90% | 100% | 90% | 100% | 80% | 0% | 100% | 90% | 100% | 90% | 100% | 100% | 80% | 100% | 20% | 100% | – | – | – | Pre-emergence action against POLCO in % ([2]; dosage 80 g/ha): 90%; Post-emergence action against MATIN in % ([9]; dosage 80 g/ha): 80%; Post-emergence action against ZEAMX in % (crop plant compatibility) (Zea mays (ZEAMX) [15]; 20 g/ha, ZEAMX, effect in comparison to untreated controls): 20%; Post-emergence action against ORYSA in % (Oryza sativa (ORYSA); 20 g/ha, effect vs untreated controls): 10%; Post-emergence action against ALOMY in % ([16]; 80 g/ha): 100%
O=C(O)COc1nn(-c2nc(F)ccc2F)c(-c2ccc(F)nc2)c1Br [Example I-334] | – | 90% | 80% | 90% | 100% | 80% | 20% | 90% | 90% | 90% | 80% | 90% | 100% | 90% | 90% | 20% | 90% | 80% | 80% | 80% | Post-emergence action against ECHCG in % ([19]; dosage 320 g/ha): 90%; Post-emergence action against VIOTR in % (Viola tricolor (VIOTR) [20]; 80 g/ha): 80%; Post-emergence action against VIOTR in % (Viola tricolor (VIOTR) [20]; 320 g/ha): 80%; Post-emergence action against ABUTH in % ([21]; 80 g/ha): 80%; Post-emergence action against ABUTH in % ([21]; 320 g/ha): 80%; Post-emergence action against AMARE in % ([5]; 320 g/ha, visual rating about 3 weeks after treatment): 80%; Post-emergence action against AVEFA in % (Avena fatua (AVEFA) [22]): 80%; Pre-emergence action against ECHCG in % ([7]; dosage 80 g/ha): 80%; Post-emergence action against POLCO in % [23]: 80%; Post-emergence action against MATIN in % ([9]; dosage 320 g/ha): 80%; Pre-emergence action against MATIN in % ([12]; dosage 80 g/ha): 80%; Pre-emergence action against SETVI in % (Setaria viridis (SETVI) [14]; dosage 80 g/ha): 90%; Post-emergence action against ZEAMX in % (Zea mays (ZEAMX) [15]; 80 g/ha): 10%; Post-emergence action against ZEAMX in % (Zea mays (ZEAMX) [15]; 320 g/ha): 20%; Post-emergence action against LOLRI in % (Lolium rigidum (LOLRI) [24]): 90%; Post-emergence action against ALOMY in % ([16]; 320 g/ha): 90%
COCCOC(=O)COc1nn(-c2ncccc2C(F)(F)F)c(-c2cncc(F)c2)c1Br [Example I-157] | 80% | 90% | 90% | – | – | – | 10% | 80% | – | 100% | – | 80% | – | 90% | – | 10% | – | 80% | 90% | 80% | Post-emergence action against ECHCG in % ([19]; dosage 320 g/ha): 90%; Post-emergence action against ABUTH in % ([21]; 320 g/ha): 80%; Post-emergence action against SETVI in % (Setaria viridis (SETVI) [25]): 80%; Pre-emergence action against VIOTR in % (Viola tricolor (VIOTR) [10]; dosage 80 g/ha): 80%; Post-emergence action against ZEAMX in % (Zea mays (ZEAMX) [15]; 80 g/ha): 20%
